Drawing on the OPERA property sets (Mansouri et al. 2018), this text covers logP for 31 compounds.

The structures appear in SMILES notation.

`O=C(Oc1ccc(Cl)cc1)N1CCCC1` returned a logP of 3.38.
Next, `Nc1c([N+](=O)[O-])ccc(Oc2ccccc2)c1Cl`: 4.04.
Compound `O=C(Oc1ccc(Cl)cc1Cl)N1CCCC1` came in with a logP of 3.94.
Next, `COC(=O)c1cc(S(=O)(=O)c2ccc(C(F)(F)F)cc2Cl)ccc1[N+](=O)[O-]`: 3.57; `COC(=O)c1cc(Sc2ccc(C(F)(F)F)cc2Cl)ccc1[N+](=O)[O-]`: 4.76.
Next, `O=[N+]([O-])c1ccc(Oc2ccc(C(F)(F)F)cc2Cl)cc1Oc1ccoc1`: 4.33; `O=C(O)COC(=O)c1cc(Oc2ccc(C(F)(F)F)cc2Cl)ccc1[N+](=O)[O-]`: 4.27; `C#CCOc1cc(OC(=O)N2CCCC2)c(Cl)cc1Cl`: 3.82.
The compound `C#CCOc1cc(OC(=O)N2CCC(F)(F)CC2)c(Cl)cc1Cl` registered a logP of 3.57.
`COC(=O)CON=C(C)c1cc(Oc2ccc(C(F)(F)F)cc2Cl)ccc1[N+](=O)[O-]` had a logP of 4.54.
Next, `COC(=O)c1cc(Oc2ccc(C(F)(F)F)cc2Cl)ccc1[N+](=O)[O-]`: 4.26; `CCOC(=O)C(C)OC(=O)c1cc(Oc2ccc(C(F)(F)F)cc2Cl)ccc1[N+](=O)[O-]` (stereo unspecified): 4.81; `C=COC(=O)C(C)Oc1cc(Oc2ccc(C(F)(F)F)cc2Cl)ccc1[N+](=O)[O-]` (stereo unspecified): 4.54.
Next, `O=C(Oc1cc(O)c(Cl)cc1Cl)N1CCCC1`: 2.98.
Next, `C#CCOc1cc(OC(=O)N2CCCCC2)c(Cl)cc1Cl`: 4.25.
`C#CCOc1cc(OC(=O)N(CC)CC)c(Cl)cc1Cl` gave a logP of 3.95.
Next, `O=[N+]([O-])c1ccc(Oc2ccc(C(F)(F)F)cc2Cl)cc1`: 4.54.
Next, `CCOc1cc(Oc2ccc(C(F)(F)F)cc2Cl)ccc1[N+](=O)[O-]`: 4.73; `C#CCOC1=Nc2cc(OC(=O)N3CCCC3)c(Cl)cc2OC1`: 2.93; `COC(=O)c1cc(Oc2ccc(C(F)(F)F)cc2Cl)ccc1Cl`: 5.04.
Compound `C#CCOc1cc(OC(=O)N2CCC(F)(F)C2)c(Cl)cc1Cl` displayed a log partition coefficient (logP) of 3.42.
Next, `O=C(Oc1ccccc1)N1CCCC1`: 2.73.
Next, `COC(=O)c1cc(S(=O)c2ccc(C(F)(F)F)cc2Cl)ccc1[N+](=O)[O-]` (stereo unspecified): 3.65.
Next, `CC(C)OC(=O)c1cc(OC(=O)N2CCCC2)c(F)cc1Cl`: 4.22; `CC(C)OC(=O)c1cc(OC(=O)N2CCCC2)c(Cl)cc1Cl`: 4.67.
As for `Cc1cccc(Oc2ccc([N+](=O)[O-])cc2)c1`, the logP amounted to 4.4.
In turn, `O=C(Oc1ccccc1Cl)N1CCCC1` had a logP of 3.13.
On to `CCOC(=O)C(C)Oc1cc(Oc2ccc(C(F)(F)F)cc2Cl)ccc1[N+](=O)[O-]` (stereo unspecified), for which the logP amounted to 4.53.
Next, `COC(=O)c1cc(Oc2cc(C(F)(F)F)ccc2Cl)ccc1[N+](=O)[O-]`: 4.21.
Next, `O=[N+]([O-])c1ccc(Oc2ccccc2)cc1`: 3.92.
As to `COC(=O)c1cc(OC(=O)N2CCCC2)c(Cl)cc1Cl`, the logP amounted to 3.95.

By logP is commonly meant a log measure of how a compound divides between an organic and an aqueous phase.
